Common to all, as to assay type: cell-based
One experiment deals with T1, HiBiT-tagged BCL-xL (Homo sapiens, UniProt Q07817).
T1 construct: expressed in transfected cells; host or cells: NCI-H1650 (ATCC No. CRL-5883), engineered HiBiT cell line
Put plainly: NCI-H1650 BCL-xL protein levels, Nano-Glo HiBiT Lytic Detection. The settings on record: NCI-H1650 expressing HiBiT-tagged BCL-xL, overnight incubation, read-out: Bcl-xl HIBIT NCIH1650 DC50. How it is done: (§1) The ability of the BCL-xL degrader low molecular weight compounds to degrade BCL-xL protein was assessed using the Promega Nano-Glo® HiBiT Lytic Detection System. The NCI-H1650 (ATCC No. CRL-5883) was engineered to express HiBiT-tagged BCL-xL. The NCI-H1650 HiBiT cell line was cultured in media that is optimal for their growth at 5% CO2, 37° C. in a tissue culture incubator. Prior to seeding for the protein level assay, the cells were split at least 2 days before the assay to ensure optimal growth density. On the day of seeding, cells were lifted off tissue culture flasks using 0.25% trypsin. Cell viability and cell density were determined using a cell counter (Vi-Cell XR Cell Viability Analyzer, Beckman Coulter). Cells with higher than 85% viability were seeded in white clear bottom 384-well plates (Greiner cat #781098) at a density of 5000 cells per well in 30 μL of standard growth media. Plates were incubated at 37° C. overnight in a tissue culture incubator.
(§2) The BCL-xL degrader low molecular weight compounds were prepared to desired concentrations. A series of 10 dilutions were made for each prepared compound. The prepared compounds were then added to the cells resulting in final concentrations of 0.508 nM-10 μM. An acoustic transfer device (Echo555, Beckman Coulter) was used to add the compounds to the cells. Each treatment was tested in triplicate assay plates. Plates were incubated at 37° C. overnight in a tissue culture incubator.
BCL-xL degradation was assessed through the addition of 30 μL of Nano-Glo® HiBiT Lytic Reagent (Promega, cat #N3040), a reagent which lyses cells and contains a furimazine substrate and the large subunit (LgBiT) used in NanoLuc® Binary Technology. The LgBiT subunit having high affinity to a HiBiT-tagged protein will bind HiBiT, if present, resulting in complex formation of a luminescent NanoBiT® enzyme. This reaction will emit a luminescent signal proportional to the amount of HiBiT-tagged BCL-xL present in the cell lysate. Plates were incubated at room temperature for 20 minutes to stabilize luminescent signals prior to reading using a luminescence reader (PHERAstar FSX Microplate Reader, BMG Labtech).
To evaluate the effect of the drug treatments, luminescent counts from wells containing untreated cells (100% HiBiT-tagged BCL-xL) were used to normalize treated samples. The concentrations of treatment required to inhibit 50% were calculated using a four parameter logistic regression equation.

Experiment [1] has as its system EBC-1 lung cancer cell line. The experiment is described as follows: EBC-1 cell proliferation, CellTiter-Glo assay. The settings on record: Homo sapiens, 120 h; Ebc-1 cell viability, CTG assay, 5 days of treatment; read-out: CTG 5 day Ebc1 GI50. How it is done:
as §1, with “to inhibit cell proliferation and survival” for “to degrade BCL-xL protein”, “Promega CellTiter-Glo® proliferation assay on the EBC-1 lung cancer” for “Promega Nano-Glo® HiBiT Lytic Detection System. The NCI-H1650 (ATCC No. CRL-5883) was engineered to express HiBiT-tagged BCL-xL. The NCI-H1650 HiBiT”, “line (RCB1965, obtained from RIKEN.) The cells were” for “line was”, “the proliferation” for “the protein level”, “of 1000” for “of 5000”, “in 50” for “in 30”
as §2, with “overnight or for 5 days” for “overnight”, “incubator. The ability of the compounds to inhibit cell proliferation and survival was assessed using the Promega CellTiter-Glo® proliferation assay. Plates were incubated at room temperature for 20 minutes to stabilize luminescent signals prior to reading using a multimode plate reader (PHERAstar FSX Microplate Reader, BMG Labtech).” for “incubator.”
To evaluate the effect of the compound treatments, luminescent counts of untreated cells were taken the day after seeding (Day 0 readings), and after 5 days of treatment (Day 5 readings). The Day 5 readings of the untreated cells were compared to the Day 0 readings. Assays with at least one cell doubling during the incubation period were considered valid. To evaluate the effect of the drug treatments, luminescent counts from wells containing untreated cells (100% viability) were used to normalize treated samples. The concentrations of treatment required to inhibit 50% of cell growth or survival ([…]) were calculated using a four parameter logistic regression equation.

Another experiment has as its system MOLT-4 cells. Put plainly: MOLT-4 cell viability, CTG assay. The settings on record: Homo sapiens, MOLT-4, 48 h. In outline: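 Cells grown in RPMI 1640 with 10% FBS at 37° C, 5% CO2, then exposed to compounds for 48 h (11-point 5-fold dilution, triplicates). ATP measured by CellTiter-Glo luminescence; IC50 from four-parameter fit versus control, mean of ≥2 independent experiments.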

The target in another experiment is T2, Bcl-xL (Homo sapiens, UniProt Q07817).
T2 construct: Measured levels of Bcl-xL protein of HCT116 cells treated with the tested compounds; host or cells: HCT116
T2 sequence (Q07817 whole entry): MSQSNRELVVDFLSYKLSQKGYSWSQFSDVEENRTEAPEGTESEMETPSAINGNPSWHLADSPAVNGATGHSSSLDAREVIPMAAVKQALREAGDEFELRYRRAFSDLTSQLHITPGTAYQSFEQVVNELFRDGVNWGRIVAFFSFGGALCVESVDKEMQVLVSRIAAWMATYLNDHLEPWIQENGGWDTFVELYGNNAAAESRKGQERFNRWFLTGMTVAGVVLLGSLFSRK
The experiment is described as follows: HCT116 Bcl-xL degradation, capillary-based immunoassay (WES). The settings on record: HCT116, 24 h, 9-point serial dilution. Put shortly: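 HCT116 cells treated 24 h with compound at 10/100 nM and/or 9-point dilution (quadruplicates), then lysed. Bcl-xL measured by capillary WES immunoassay, normalized to cofilin and expressed as % of untreated cells. DC50 from four-parameter curve fit.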

Structures are written as SMILES.

T1 sequence (Q07817 whole entry): as above

`Cc1ncsc1-c1ccc([C@H](C)NC(=O)[C@@H]2C[C@@H](O)CN2C(=O)[C@@H](NC(=O)[C@H]2CC[C@H](NC(=O)c3nc(N4CCCc5c4nnc(Nc4nc6ccccc6s4)c5C)ccc3-c3cnn(CC45CC6(C)CC(C)(C4)CC(OCCN4CCCC4)(C6)C5)c3C)CC2)C(C)(C)C)cc1` [Example 162, 6-(3-(benzo[d]thiazol-2-ylamino)-4-methyl-6,7-dihydropyrido[2,3-c]pyridazin-8(5H)-yl)-3-(1-(((1r,3R,5S,7s)-3,5-dimethyl-7-(2-(pyrrolidin-1-yl)ethoxy)adamantan-1-yl)methyl)-5-methyl-1H-pyrazol-4-yl)-N-((1S,4R)-4-(((S)-1-((2S,4R)-4-hydroxy-2-(((S)-1-(4-(4-methylthiazol-5-yl)phenyl)ethyl)carbamoyl)pyrrolidin-1-yl)-3,3-dimethyl-1-oxobutan-2-yl)carbamoyl)cyclohexyl)picolinamide]: at HiBiT-tagged BCL-xL, the DC50 is over 1670 nM. The GI50 in experiment [1] was found to be 222 nM.

On to `Cc1ncsc1-c1ccc([C@H](C)NC(=O)[C@@H]2C[C@@H](O)CN2C(=O)C(NC(=O)CCCCCCCCN(C)C(=O)c2nc(N3CCCc4c3nnc(Nc3nc5ccccc5s3)c4C)ccc2-c2cnn(CC34CC5(C)CC(C)(C3)CC(OCCN3CCCC3)(C5)C4)c2C)C(C)(C)C)cc1` (stereo partly drawn) [Example 161, 6-(3-(benzo[d]thiazol-2-ylamino)-4-methyl-6,7-dihydropyrido[2,3-c]pyridazin-8(5H)-yl)-3-(1-(((1r,3R,5S,7s)-3,5-dimethyl-7-(2-(pyrrolidin-1-yl)ethoxy)adamantan-1-yl)methyl)-5-methyl-1H-pyrazol-4-yl)-N-(9-(((S)-1-((2S,4R)-4-hydroxy-2-(((S)-1-(4-(4-methylthiazol-5-yl)phenyl)ethyl)carbamoyl)pyrrolidin-1-yl)-3,3-dimethyl-1-oxobutan-2-yl)amino)-9-oxononyl)-N-methylpicolinamide], for which, at HiBiT-tagged BCL-xL, the DC50 turned out to be 0.4 nM. The GI50 in experiment [1] came out at 8 nM.

Compound `CN[C@@H](C)C(=O)N[C@H](C(=O)N1CCC[C@H]1c1nc(C(=O)c2cccc(OCCN(C)CCOC34CC5(C)CC(C)(CC(Cn6ncc(-c7ccc(N8CCCc9c8nnc(Nc8nc%10ccccc%10s8)c9C)nc7C(=O)O)c6C)(C5)C3)C4)c2)cs1)C1CCCCC1` [Example 101, 6-[3-(1,3-benzothiazol-2-ylamino)-4-methyl-6,7-dihydro-5H-pyrido[2,3-c]pyridazin-8-yl]-3-[1-[[3-[2-[2-[3-[2-[(2S)-1-[(2S)-2-cyclohexyl-2-[[(2S)-2-(methylamino)propanoyl]amino]acetyl]pyrrolidin-2-yl]thiazole-4-carbonyl]phenoxy]ethyl-methyl-amino]ethoxy]-5,7-dimethyl-1-adamantyl]methyl]-5-methyl-pyrazol-4-yl]pyridine-2-carboxylic acid] had a 50% inhibitory concentration (IC50) with MOLT-4 cells of 7.68 nM. The compound further showed a DC50 at Bcl-xL of 0.612 nM.

As to `Cc1ncsc1-c1ccc([C@H](C)NC(=O)[C@@H]2C[C@@H](O)CN2C(=O)[C@@H](NC(=O)CCOCCOCCN(C)CCOC23CC4(C)CC(C)(CC(Cn5ncc(-c6ccc(N7CCCc8c7nnc(Nc7nc9ccccc9s7)c8C)nc6C(=O)O)c5C)(C4)C2)C3)C(C)(C)C)cc1` [Example 173, 6-[3-(1,3-benzothiazol-2-ylamino)-4-methyl-6,7-dihydro-5H-pyrido[2,3-c]pyridazin-8-yl]-3-[1-[[3-[2-[2-[2-[3-[[(1S)-1-[(2S,4R)-4-hydroxy-2-[[(1S)-1-[4-(4-methylthiazol-5-yl)phenyl]ethyl]carbamoyl]pyrrolidine-1-carbonyl]-2,2-dimethyl-propyl]amino]-3-oxo-propoxy]ethoxy]ethyl-methyl-amino]ethoxy]-5,7-dimethyl-1-adamantyl]methyl]-5-methyl-pyrazol-4-yl]pyridine-2-carboxylic acid], the IC50 in the experiment on MOLT-4 cells was determined as 35.6 nM. This compound also returned a DC50 at Bcl-xL of over 316 nM.

For the compound `Cc1ncsc1-c1ccc([C@H](C)NC(=O)[C@@H]2C[C@@H](O)CN2C(=O)[C@@H](NC(=O)CCCCCCCCCCCCCN(C)CCOC23CC4(C)CC(C)(CC(Cn5ncc(-c6ccc(N7CCCc8c7nnc(Nc7nc9ccccc9s7)c8C)nc6C(=O)NC(C)C)c5C)(C4)C2)C3)C(C)(C)C)cc1` [Example 157, 6-[3-(1,3-benzothiazol-2-ylamino)-4-methyl-6,7-dihydro-5H-pyrido[2,3-c]pyridazin-8-yl]-3-[1-[[3-[2-[[14-[[(1S)-1-[(2S,4R)-4-hydroxy-2-[[(1S)-1-[4-(4-methylthiazol-5-yl)phenyl]ethyl]carbamoyl]pyrrolidine-1-carbonyl]-2,2-dimethyl-propyl]amino]-14-oxo-tetradecyl]-methyl-amino]ethoxy]-5,7-dimethyl-1-adamantyl]methyl]-5-methyl-pyrazol-4-yl]-N-isopropyl-pyridine-2-carboxamide], the concentration for half-maximal inhibition (IC50) in the experiment on MOLT-4 cells turned out to be 7.62 nM. At Bcl-xL, the DC50 came to 18.8 nM.

For `Cc1c(Nc2nc3ccccc3s2)nnc2c1CCCN2c1ccc(-c2cnn(CC34CC5(C)CC(C)(C3)CC(OCCN(C)CCCCCOc3ccc6c(c3)C(=O)N(C3CCC(=O)NC3=O)C6=O)(C5)C4)c2C)c(C(=O)O)n1` (stereo not drawn) [Example 107, 6-[3-(1,3-benzothiazol-2-ylamino)-4-methyl-6,7-dihydro-5H-pyrido[2,3-c]pyridazin-8-yl]-3-[1-[[3-[2-[5-[2-(2,6-dioxo-3-piperidyl)-1,3-dioxo-isoindolin-5-yl]oxypentyl-methyl-amino]ethoxy]-5,7-dimethyl-1-adamantyl]methyl]-5-methyl-pyrazol-4-yl]pyridine-2-carboxylic acid], the concentration for half-maximal inhibition (IC50) with MOLT-4 cells stood at 4.72 nM. This compound also had a DC50 on Bcl-xL of 0.739 nM.

The values above are taken from patent publication US20240376094A2, “SELECTIVE BCL-XL PROTAC COMPOUNDS AND METHODS OF USE” (Les Laboratoires Servier, priority 2021, published 2024).
